From US11827657B2, “Boron containing pyrazole compounds, compositions comprising them, methods and uses thereof” (BOEHRINGER INGELHEIM ANIMAL HEALTH USA INC., priority 2020, dated 2023)

Target: JAK1 (Homo sapiens, UniProt P23458)
Assay: Biochemical Kinase Assay (JAK), 33P-ATP filter-binding
Settings: Biochemical Kinase Inhibition Assay; potency level of IC50; read-out: JAK1 (range)
Outline: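 Radiometric filter-binding with 33P-ATP in pH 7.5 Hepes buffer with 10 mM MgCl2 and 1% DMSO. Compound preincubated with kinase and substrate 20 min at room temperature, reaction run 2 h at room temperature, spotted on P81 paper to give IC50.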

Chain of JAK1 (P23458 whole entry, species assumed): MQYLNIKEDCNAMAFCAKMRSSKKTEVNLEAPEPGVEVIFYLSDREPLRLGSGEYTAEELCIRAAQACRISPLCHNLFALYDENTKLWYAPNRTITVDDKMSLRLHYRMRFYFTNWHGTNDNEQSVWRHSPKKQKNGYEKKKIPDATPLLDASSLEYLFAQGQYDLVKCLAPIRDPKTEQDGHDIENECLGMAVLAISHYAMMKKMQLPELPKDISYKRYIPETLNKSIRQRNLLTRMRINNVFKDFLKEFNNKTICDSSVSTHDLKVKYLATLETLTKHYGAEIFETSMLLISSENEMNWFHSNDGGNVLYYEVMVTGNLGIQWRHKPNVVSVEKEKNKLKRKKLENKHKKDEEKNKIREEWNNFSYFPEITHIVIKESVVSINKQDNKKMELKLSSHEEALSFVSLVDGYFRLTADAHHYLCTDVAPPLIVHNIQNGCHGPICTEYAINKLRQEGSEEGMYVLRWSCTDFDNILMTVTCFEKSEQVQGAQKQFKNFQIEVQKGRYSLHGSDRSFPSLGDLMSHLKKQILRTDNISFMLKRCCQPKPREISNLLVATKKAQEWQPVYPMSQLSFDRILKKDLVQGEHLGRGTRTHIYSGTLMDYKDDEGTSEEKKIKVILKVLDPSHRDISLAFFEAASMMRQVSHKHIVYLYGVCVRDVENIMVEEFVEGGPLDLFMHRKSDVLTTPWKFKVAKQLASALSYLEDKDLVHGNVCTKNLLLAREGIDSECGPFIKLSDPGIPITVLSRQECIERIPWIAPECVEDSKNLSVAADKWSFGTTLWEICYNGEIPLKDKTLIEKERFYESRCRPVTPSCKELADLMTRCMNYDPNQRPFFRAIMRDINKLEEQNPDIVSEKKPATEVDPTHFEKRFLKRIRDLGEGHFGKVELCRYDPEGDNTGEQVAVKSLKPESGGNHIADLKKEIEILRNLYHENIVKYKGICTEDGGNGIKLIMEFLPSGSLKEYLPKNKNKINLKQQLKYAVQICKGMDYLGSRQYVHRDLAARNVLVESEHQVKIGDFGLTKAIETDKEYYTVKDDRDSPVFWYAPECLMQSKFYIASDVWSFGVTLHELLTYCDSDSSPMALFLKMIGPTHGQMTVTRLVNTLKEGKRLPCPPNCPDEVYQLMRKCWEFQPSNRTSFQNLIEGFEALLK

SMILES	IC50 [nM]
CC(C)(C)C1=Cc2cc(Nc3nn([C@@H]4COCC[C@H]4C#N)cc3C(N)=O)ccc2OB1O (relative stereo) [Example 19, 3-[(3-tert-butyl-2-hydroxy-1,2-benzoxaborinin-6-yl)amino]-1-(trans-4-cyanotetrahydro-2H-pyran-3-yl)pyrazole-4-carboxamide]	< 10
CC1=Cc2cc(Nc3nn([C@@H]4CCCC[C@H]4C#N)cc3C(N)=O)ccc2OB1O (relative stereo) [Example 26, 1-[trans-2-cyanocyclohexyl]-3-[(2-hydroxy-3-methyl-1,2-benzoxaborinin-6-yl)amino]pyrazole-4-carboxamide]	< 10
N#CC1CCOCC1n1cc(C(N)=O)c(Nc2cc(F)c3c(c2)COB3O)n1 (stereo not drawn) [Example 38, 1-[trans-4-cyanotetrahydro-2H-pyran-3-yl]-3-[(7-fluoro-1-hydroxy-3H-2,1-benzoxaborol-5-yl)amino]pyrazole-4-carboxamide]	< 10
N#C[C@@H]1CCC[C@H]1n1cc(C(N)=O)c(Nc2ccc3c(c2)C=CB(O)O3)n1 (relative stereo) [Example 8, 1-(trans-2-cyanocyclopentyl)-3-[(2-hydroxy-1,2-benzoxaborinin-6-yl)amino]pyrazole-4-carboxamide]	< 10
N#C[C@@H]1CCOC[C@H]1n1cc(C(N)=O)c(Nc2cc(Cl)c3c(c2)C=CB(O)O3)n1 (single isomer, unassigned) [Example 13b, 3-[(8-chloro-2-hydroxy-1,2-benzoxaborinin-6-yl)amino]-1-[trans-4-cyanotetrahydro-2H-pyran-3-yl]pyrazole-4-carboxamide]	< 10
Cc1c(Nc2nn([C@@H]3COCC[C@H]3C#N)cc2C(N)=O)ccc2c1C=CB(O)O2 (single isomer, unassigned) [Example 17a, 1-[trans-4-cyanotetrahydro-2H-pyran-3-yl]-3-[(2-hydroxy-5-methyl-1,2-benzoxaborinin-6-yl)amino]pyrazole-4-carboxamide]	> 50
N#C[C@@H]1CCOC[C@H]1n1cc(C(N)=O)c(Nc2ccc3c(c2F)C=CB(O)O3)n1 (relative stereo) [Example 54, 1-(trans-4-cyanotetrahydro-2H-pyran-3-yl)-3-[(5-fluoro-2-hydroxy-1,2-benzoxaborinin-6-yl)amino]pyrazole-4-carboxamide]	10 to 50
N#C[C@@H]1CCOC[C@H]1n1cc(C(N)=O)c(Nc2ccc3c(c2)C=C(CCO)B(O)O3)n1 (relative stereo) [Example 22, 1-[trans-4-cyanooxan-3-yl]-3-{[2-hydroxy-3-(2-hydroxyethyl)-2H-1,2-benzoxaborinin-6-yl]amino}-1H-pyrazole-4-carboxamide]	< 10
CC1=C(C)c2cc(Nc3nn([C@@H]4COCC[C@H]4C#N)cc3C(N)=O)cc(C)c2OB1O (single isomer, unassigned) [Example 23b, 1-[trans-4-cyanotetrahydro-2H-pyran-3-yl]-3-[(2-hydroxy-3,4,8-trimethyl-1,2-benzoxaborinin-6-yl)amino]pyrazole-4-carboxamide]	> 50
CC(C)C1=Cc2cc(Nc3nn([C@@H]4CCC[C@H]4C#N)cc3C(N)=O)ccc2OB1O (relative stereo) [Example 50, 1-(trans-2-cyanocyclopentyl)-3-[(2-hydroxy-3-isopropyl-1,2-benzoxaborinin-6-yl)amino]pyrazole-4-carboxamide]	< 10
CC(C)C1=Cc2cc(Nc3nn([C@@H]4CCCC[C@H]4C#N)cc3C(N)=O)ccc2OB1O (relative stereo) [Example 49, 1-(trans-2-cyanocyclohexyl)-3-[(2-hydroxy-3-isopropyl-1,2-benzoxaborinin-6-yl)amino]pyrazole-4-carboxamide]	< 10
CC1=C(C)c2cc(Nc3nn([C@@H]4COCC[C@H]4C#N)cc3C(N)=O)cc(C)c2OB1O (single isomer, unassigned) [Example 23a, 1-[trans-4-cyanotetrahydro-2H-pyran-3-yl]-3-[(2-hydroxy-3,4,8-trimethyl-1,2-benzoxaborinin-6-yl)amino]pyrazole-4-carboxamide]	< 10
N#CC1CCOCC1n1cc(C(N)=O)c(Nc2ccc3c(c2)COB3O)n1 (stereo not drawn) [Example 41, 1-(trans-4-cyanotetrahydro-2H-pyran-3-yl)-3-((1-hydroxy-1,3-dihydrobenzo[c][1,2]oxaborol-5-yl)amino)-1H-pyrazole-4-carboxamide]	< 10
CC1=Cc2cc(Nc3nn(C4COCCC4C#N)cc3C(N)=O)cc(F)c2OB1O (stereo not drawn) [Example 14, 1-(trans-4-cyanotetrahydro-2H-pyran-3-yl)-3-[(8-fluoro-2-hydroxy-3-methyl-1,2-benzoxaborinin-6-yl)amino]pyrazole-4-carboxamide]	< 10

The next lines start with the values.

IC50 [nM]	SMILES
< 10	N#C[C@@H]1CCOC[C@H]1n1cc(C(N)=O)c(Nc2ccc3c(c2)COB3O)n1 (single isomer, unassigned) [Example 41b, 1-(trans-4-cyanotetrahydro-2H-pyran-3-yl)-3-((1-hydroxy-1,3-dihydrobenzo[c][1,2]oxaborol-5-yl)amino)-1H-pyrazole-4-carboxamide]
< 10	CC(C)C1=Cc2cc(Nc3nn([C@@H]4COCC[C@H]4C#N)cc3C(N)=O)ccc2OB1O (single isomer, unassigned) [Example 48a, 1-(trans-4-cyanotetrahydro-2H-pyran-3-yl)-3-((2-hydroxy-3-isopropyl-2H-benzo[e][1,2]oxaborinin-6-yl)amino)-1H-pyrazole-4-carboxamide]
> 50	Cc1cc2c(cc1Nc1nn([C@@H]3COCC[C@H]3C#N)cc1C(N)=O)C=CB(O)O2 (single isomer, unassigned) [Example 46a, 1-(trans-4-cyanotetrahydro-2H-pyran-3-yl)-3-((2-hydroxy-7-methyl-2H-benzo[e][1,2]oxaborinin-6-yl)amino)-1H-pyrazole-4-carboxamide]
< 10	CC1=CB(O)Oc2c(C)cc(Nc3nn([C@@H]4COCC[C@H]4C#N)cc3C(N)=O)cc21 (single isomer, unassigned) [Example 47b, 1-[trans-4-cyanotetrahydro-2H-pyran-3-yl]-3-[(2-hydroxy-4,8-dimethyl-1,2-benzoxaborinin-6-yl)amino]pyrazole-4-carboxamide]
> 50	CC(C)C1=CB(O)Oc2ccc(Nc3nn([C@@H]4COCC[C@H]4C#N)cc3C(N)=O)cc21 (single isomer, unassigned) [Example 30a, 1-[trans-4-cyanotetrahydro-2H-pyran-3-yl]-3-[(2-hydroxy-4-isopropyl-1,2-benzoxaborinin-6-yl)amino]pyrazole-4-carboxamide]
< 10	N#C[C@@H]1CCOC[C@H]1n1cc(C(N)=O)c(Nc2cc3c(c(C(F)(F)F)c2)OB(O)C=C3)n1 (single isomer, unassigned) [Example 28b, 1-[trans-4-cyanotetrahydro-2H-pyran-3-yl]-3-[[2-hydroxy-8-(trifluoromethyl)-1,2-benzoxaborinin-6-yl]amino]pyrazole-4-carboxamide]
< 10	N#C[C@@H]1CCOC[C@H]1n1cc(C(N)=O)c(Nc2cc3c(c(OC(F)(F)F)c2)OB(O)C=C3)n1 (single isomer, unassigned) [Example 53b, 1-[trans-4-cyanotetrahydro-2H-pyran-3-yl]-3-[[2-hydroxy-8-(trifluoromethoxy)-1,2-benzoxaborinin-6-yl]amino]pyrazole-4-carboxamide]
< 10	CC(C)C1=CB(O)Oc2ccc(Nc3nn([C@@H]4COCC[C@H]4C#N)cc3C(N)=O)cc21 (single isomer, unassigned) [Example 30b, 1-[trans-4-cyanotetrahydro-2H-pyran-3-yl]-3-[(2-hydroxy-4-isopropyl-1,2-benzoxaborinin-6-yl)amino]pyrazole-4-carboxamide]
< 10	N#C[C@@H]1CCOC[C@H]1n1cc(C(N)=O)c(Nc2ccc3c(c2)COB3O)n1 (single isomer, unassigned) [Example 41a, 1-(trans-4-cyanotetrahydro-2H-pyran-3-yl)-3-((1-hydroxy-1,3-dihydrobenzo[c][1,2]oxaborol-5-yl)amino)-1H-pyrazole-4-carboxamide]
< 10	N#C[C@@H]1CCOC[C@H]1n1cc(C(N)=O)c(Nc2cc(Cl)c3c(c2)COB3O)n1 (single isomer, unassigned) [Example 52a, 3-((7-chloro-1-hydroxy-1,3-dihydrobenzo[c][1,2]oxaborol-5-yl)amino)-1-(trans-4-cyanotetrahydro-2H-pyran-3-yl)-1H-pyrazole-4-carboxamide]
10 to 50	Cc1cc(Nc2nn([C@@H]3COCC[C@H]3C#N)cc2C(N)=O)cc2c1OB(O)C=C2 (single isomer, unassigned) [Example 27a, 1-[trans-4-cyanotetrahydropyran-3-yl]-3-[(2-hydroxy-8-methyl-1,2-benzoxaborinin-6-yl)amino]pyrazole-4-carboxamide]
< 10	CC(C)C1=Cc2cc(Nc3nn([C@@H]4COCC[C@H]4C#N)cc3C(N)=O)ccc2OB1O (single isomer, unassigned) [Example 48b, 1-(trans-4-cyanotetrahydro-2H-pyran-3-yl)-3-((2-hydroxy-3-isopropyl-2H-benzo[e][1,2]oxaborinin-6-yl)amino)-1H-pyrazole-4-carboxamide]
